± gives the expanded uncertainty stated by the source.
How the values were obtained:
[1] = Crystal; visual observation
[2] = molar enthalpy of vaporization or sublimation; conditions: 298.15 K; Crystal; drop calorimetry

## O=[N+]([O-])c1cccc2nsnc12 [4-nitro-2,1,3-benzothiadiazole]
[1]
  Normal melting temperature: 110 ± 1 °C
[2]
  molar enthalpy: 24.3 ± 2.06 kcal/mol

Source: the NIST ThermoML archive (doi:10.1016/j.jct.2012.01.018)
